Experimental data reported in publication PMC12432435, “Not only an inhibitor: Trehalose enhances the catalytic action exerted on oxaloacetate by rabbit lactate dehydrogenase” (Protein Science : A Publication of the Protein Society, 2025).

Experiments:
[1] = target: T1, rabbit muscle lactate dehydrogenase (rbLDH, LDH-A) (Oryctolagus cuniculus, UniProt P13491); assay: stopped-flow tryptophan fluorescence quenching of the rbLDH•β-NADH complex; assay type: binding
T1 construct: gene LDHA; tetrameric enzyme from rabbit skeletal muscle

[2] = target: T1, rabbit muscle lactate dehydrogenase (rbLDH, LDH-A); assay: stopped-flow tryptophan fluorescence quenching (FRET), association and dissociation kinetics; assay type: binding; conditions: read-out: stopped-flow tryptophan fluorescence quenching (FRET), association and dissociat

Structure (SMILES)	Control / k obs [1] [s⁻¹]	kon [2] [M⁻¹ s⁻¹]
NC(=O)C(=O)O [oxamate]	642 ± 19	–
NC(=O)C1=CN([C@@H]2O[C@H](COP(=O)(O)OP(=O)(O)OC[C@H]3O[C@@H](n4cnc5c(N)ncnc54)[C@H](O)[C@@H]3O)[C@@H](O)[C@H]2O)C=CC1 [β-NADH]	–	1.17e+08
